Results: US8735364B2, “Antisense modulation of apolipoprotein B expression” (Genzyme Corporation, priority 2001, dated 2014)
Oligonucleotides are written 5' to 3', each unit as a sugar letter and its base; * is a phosphorothioate linkage, no mark a phosphodiester; rarer units and linkages stand in square brackets, end groups in braces. Plain capitals give the bases only. e = 2'-O-(2-methoxyethyl) (MOE); [5mC] = 5-methylcytosine; d = 2'-deoxy (DNA)

What was measured:
[1] = Serum AST and ALT levels, high fat fed mice, 6 week study; type: in vivo, mouse; details: daily oral dose of 20 mg/kg
Description: (§1) Male C57BL/6 mice (n=8) receiving a high fat diet (60% kcal fat) were evaluated over the course of 6 weeks for the effects of treatment with the antisense oligonucleotide, ISIS 147764. Control animals received saline treatment (50 mg/kg). A subset of animals received a daily oral dose (20 mg/kg) atorvastatin calcium (Lipitor®, Pfizer Inc.). All mice, except atorvastatin-treated animals, were dosed intraperitoneally every three days (twice a week), after fasting overnight, with 5, 25, 50 mg/kg ISIS 147764 (SEQ ID No: 109) or saline (50 mg/kg) for six weeks. Serum cholesterol and lipoproteins were analyzed at 0, 2 and 6 week interim timepoints. At study termination, animals were sacrificed 48 hours after the final injections and evaluated for levels of target mRNA levels in liver, cholesterol, lipoprotein, triglyceride, liver enzyme (AST and ALT) and serum glucose levels as well as body, liver, spleen and fat pad weights.
Male C57BL/6 mice (n=8) receiving a high fat diet (60% kcal fat) were evaluated over the course of 6 weeks for the effects of ISIS 147764 on liver enzyme (AST and ALT) levels. Control animals received saline treatment (50 mg/kg). Mice were dosed intraperitoneally every three days (twice a week), after fasting overnight, with 5, 25, 50 mg/kg ISIS 147764 (SEQ ID No: 109) or saline (50 mg/kg) for six weeks.
Values in the table are expressed as IU/L. Increased levels of the liver enzymes ALT and AST indicate toxicity and liver damage.

[2] = Body, spleen, liver and fat pad weight, high fat fed mice, 6 week study; type: in vivo, mouse; details: 20 mg/kg daily, compared to saline-treated controls
Description: as §1
Male C57BL/6 mice (n=8) receiving a high fat diet (60% kcal fat) were evaluated over the course of 6 weeks for the effects of ISIS 147764 on body, spleen, liver and fat pad weight. Control animals received saline treatment (50 mg/kg). Mice were dosed intraperitoneally every three days (twice a week), after fasting overnight, with 5, 25, 50 mg/kg ISIS 147764 (SEQ ID No: 109) or saline (50 mg/kg) for six weeks.
At study termination, animals were sacrificed 48 hours after the final injections and body, spleen, liver and fat pad weights were measured. Values are expressed as percent change in body weight or ogan weight compared to the saline-treated control animals. Data from mice treated with atorvastatin at a daily dose of 20 mg/kg are also shown in the table Negative values indicated a decrease in weight.

[3] = Liver enzyme levels in ApoE knockout mice; type: in vivo, mouse
From the text: Female ApoE knockout mice ranged in age from 5 to 7 weeks and were placed on a normal diet for 2 weeks before study initiation. ApoE knockout mice were then fed ad libitum a 60% fat diet, with 0.15% added cholesterol to induce dyslipidemia and obesity. […]
At study termination and forty eight hours after the final injections, animals were sacrificed and evaluated for target mRNA levels in liver by RT-PCR methods verified by Northern Blot analysis, glucose levels, cholesterol and lipid levels by HPLC separation methods and triglyceride and liver enzyme levels (perfomed by LabCorp Preclinical Services; San Diego, Calif.). Data are normalized to saline controls.

[4] = system: human apolipoprotein B mRNA; assay: Inhibition of human apolipoprotein B mRNA levels in HepG2 cells, quantitative real-time PCR; type: cell-based; set-up: %INHIB of human apolipoprotein B mRNA levels: concentration or dose not given beside the values; details: for %INHIB of human apolipoprotein B mRNA levels: averages from two experiments
Description: The human hepatoblastoma cell line HepG2 was obtained from the American Type Culture Collection (Manassas, Va.). HepG2 cells were routinely cultured in Eagle's MEM supplemented with 10% fetal calf serum, non-essential amino acids, and 1 mM sodium pyruvate (Gibco/Life Technologies, Gaithersburg, Md.). Cells were routinely passaged by trypsinization and dilution when they reached 90% confluence. Cells were seeded into 96-well plates (Falcon-Primaria #3872) at a density of 7000 cells/well for use in RT-PCR analysis.
When cells reached 80% confluency, they were treated with oligonucleotide. For cells grown in 96-well plates, wells were washed once with 200 μL OPTI-MEM™-1 reduced-serum medium (Gibco BRL) and then treated with 130 μL of OPTI-MEM™-1 containing 3.75 μg/mL LIPOFECTIN™ (Gibco BRL) and the desired concentration of oligonucleotide. After 4-7 hours of treatment, the medium was replaced with fresh medium. Cells were harvested 16-24 hours after oligonucleotide treatment.
Quantitation of apolipoprotein B mRNA levels was determined by real-time quantitative PCR using the ABI PRISM™ 7700 Sequence Detection System (PE-Applied Biosystems, Foster City, Calif.) according to manufacturer's instructions. This is a closed-tube, non-gel-based, fluorescence detection system which allows high-throughput quantitation of polymerase chain reaction (PCR) products in real-time. As opposed to standard PCR, in which amplification products are quantitated after the PCR is completed, products in real-time quantitative PCR are quantitated as they accumulate. This is accomplished by including in the PCR reaction an oligonucleotide probe that anneals specifically between the forward and reverse PCR primers, and contains two fluorescent dyes. A reporter dye (e.g., JOE, FAM, or VIC, obtained from either Operon Technologies Inc., Alameda, Calif. or PE-Applied Biosystems, Foster City, Calif.) is attached to the 5′ end of the probe and a quencher dye (e.g., TAMRA, obtained from either Operon Technologies Inc., Alameda, Calif. or PE-Applied Biosystems, Foster City, Calif.) is attached to the 3′ end of the probe. When the probe and dyes are intact, reporter dye emission is quenched by the proximity of the 3′ quencher dye. During amplification, annealing of the probe to the target sequence creates a substrate that can be cleaved by the 5′-exonuclease activity of Taq polymerase. […] With each cycle, additional reporter dye molecules are cleaved from their respective probes, and the fluorescence intensity is monitored at regular intervals by laser optics built into the ABI PRISM™ 7700 Sequence Detection System. In each assay, a series of parallel reactions containing serial dilutions of mRNA from untreated control samples generates a standard curve that is used to quantitate the percent inhibition after antisense oligonucleotide treatment of test samples.
PCR reagents were obtained from PE-Applied Biosystems, Foster City, Calif. RT-PCR reactions were carried out by adding 25 μL PCR cocktail (1× TAQMAN™ buffer A, 5.5 mM MgCl2, 300 μM each of DATP, dCTP and dGTP, 600 μM of dUTP, 100 nM each of forward primer, reverse primer, and probe, 20 Units RNAse inhibitor, 1.25 Units AMPLITAQ GOLD™, and 12.5 Units MuLV reverse transcriptase) to 96 well plates containing 25 μL total RNA solution. The RT reaction was carried out by incubation for 30 minutes at 48° C. Following a 10 minute incubation at 95° C. to activate the AMPLITAQ GOLD™, 40 cycles of a two-step PCR protocol were carried out: 95° C. for 15 seconds (denaturation) followed by 60° C. for 1.5 minutes (annealing/extension).
Gene target quantities obtained by real time RT-PCR are normalized using either the expression level of GAPDH, a gene whose expression is constant, or by quantifying total RNA using RiboGreen™ (Molecular Probes, Inc. Eugene, Oreg.). GAPDH expression is quantified by real time RT-PCR, by being run simultaneously with the target, multiplexing, or separately. […]

Compound	%INHIB of human apolipoprotein B mRNA levels [4]	further results
CC(C)c1c(C(=O)Nc2ccccc2)c(-c2ccccc2)c(-c2ccc(F)cc2)n1CC[C@@H](O)C[C@@H](O)CC(=O)O [atorvastatin, atorvastatin calcium, reference compound]	–	AST levels ([1]; printed in the ALT paragraph): 40 IU/L; AST levels ([1]; saline control 65 IU/L): 85 IU/L; Fat pad weight Percent Change [2]: 7%; Liver weight Percent Change [2]: 15%; Spleen weight Percent Change [2]: 10%; Total Body Wt. Percent Change [2]: 1%; Liver Enzyme Levels ALT ([3]; 20 mg/kg daily, Control 56): 76 IU/L; Liver Enzyme Levels AST ([3]; Control 55): 75 IU/L
147833 (antisense eA*eT*eG*eA*eT*dA*d[5mC]*dA*d[5mC]*dA*dA*dT*dA*dA*dA*eG*eA*e[5mC]*eT*e[5mC]) [compound 147833]	25%	–
147796 (antisense eG*e[5mC]*eA*eG*e[5mC]*d[5mC]*dA*dG*dT*d[5mC]*dG*d[5mC]*dT*dT*dA*eT*e[5mC]*eT*e[5mC]*e[5mC]) [compound 147796]	8%	–
147780 (antisense e[5mC]*e[5mC]*eG*e[5mC]*eA*dG*dG*dT*d[5mC]*d[5mC]*d[5mC]*dG*dG*dT*dG*eG*eG*eA*eA*eT) [compound 147780]	40%	–
147827 (antisense e[5mC]*eT*eA*eA*eT*dG*dG*d[5mC]*d[5mC]*d[5mC]*d[5mC]*dT*dT*dG*dA*eT*eA*eA*eA*e[5mC]) [compound 147827]	13%	–
147781 (antisense eA*e[5mC]*e[5mC]*eG*eA*dG*dA*dA*dG*dG*dG*d[5mC]*dA*d[5mC]*dT*e[5mC]*eA*eG*e[5mC]*e[5mC]) [compound 147781]	35%	–
147831 (antisense e[5mC]*eT*eG*e[5mC]*e[5mC]*dT*dA*d[5mC]*dT*dG*d[5mC]*dA*dA*dG*dG*e[5mC]*eT*eG*eG*e[5mC]) [compound 147831]	0%	–
147818 (antisense eA*eG*eT*eG*eA*dT*dG*dG*dA*dA*dG*d[5mC]*dT*dG*d[5mC]*eG*eA*eT*eA*e[5mC]) [compound 147818]	30%	–
147807 (antisense eG*eG*e[5mC]*eG*eT*dA*dG*dA*dG*dA*d[5mC]*d[5mC]*d[5mC]*dA*dT*e[5mC]*eA*e[5mC]*eA*eT) [compound 147807]	25%	–
147825 (antisense eA*eG*eA*eA*eG*d[5mC]*dT*dG*d[5mC]*d[5mC]*dT*d[5mC]*dT*dT*d[5mC]*eT*eT*e[5mC]*e[5mC]*e[5mC]) [compound 147825]	72%	–
147828 (antisense eA*e[5mC]*eG*eT*eT*dA*dT*d[5mC]*d[5mC]*dT*dT*dG*dA*dG*dT*e[5mC]*e[5mC]*e[5mC]*eT*eG) [compound 147828]	12%	–
147809 (antisense e[5mC]*e[5mC]*e[5mC]*eA*eG*dT*dG*dA*dT*dA*dG*d[5mC]*dT*d[5mC]*dT*eG*eT*eG*eA*eG) [compound 147809]	60%	–
147794 (antisense eG*eT*eA*eA*eT*d[5mC]*dT*dT*d[5mC]*dA*dT*d[5mC]*d[5mC]*d[5mC]*d[5mC]*eA*eG*eT*eG*e[5mC]) [compound 147794]	47%	–
147784 (antisense e[5mC]*eA*eG*e[5mC]*eG*d[5mC]*d[5mC]*dA*dG*d[5mC]*dA*dG*d[5mC]*dG*d[5mC]*e[5mC]*eA*eG*e[5mC]*eA) [compound 147784]	70%	–
147829 (antisense eT*eA*eT*eA*eT*d[5mC]*d[5mC]*d[5mC]*dA*dG*dG*dT*dT*dT*d[5mC]*e[5mC]*e[5mC]*e[5mC]*eG*eG) [compound 147829]	64%	–
147823 (antisense eT*eG*e[5mC]*e[5mC]*e[5mC]*dT*dG*d[5mC]*dA*dG*d[5mC]*dT*dT*d[5mC]*dA*e[5mC]*eT*eG*eA*eA) [compound 147823]	19%	–
147820 (antisense eG*eA*eA*e[5mC]*eA*d[5mC]*dA*dT*dA*dG*d[5mC]*d[5mC]*dG*dA*dA*eT*eG*e[5mC]*e[5mC]*eG) [compound 147820]	100%	Percent Inhibition of human apolipoprotein B mRNA levels ([4]; 50 nM): 10%; Percent Inhibition of human apolipoprotein B mRNA levels ([4]; 150 nM): 0%; Percent Inhibition of human apolipoprotein B mRNA levels ([4]; 250 nM): 73%
147826 (antisense eT*e[5mC]*eA*eG*eG*dG*dT*dG*dA*dG*d[5mC]*d[5mC]*d[5mC]*dT*dG*eT*eG*eT*eG*eT) [compound 147826]	80%	–
147806 (antisense eA*eT*eG*eT*eG*dG*dT*dA*dA*d[5mC]*dG*dA*dG*d[5mC]*d[5mC]*e[5mC]*eG*eA*eA*eG) [compound 147806]	100%	Percent Inhibition of human apolipoprotein B mRNA levels ([4]; 50 nM): 23%; Percent Inhibition of human apolipoprotein B mRNA levels ([4]; 150 nM): 45%; Percent Inhibition of human apolipoprotein B mRNA levels ([4]; 250 nM): 28%
